These results are taken from patent US20250186491A1, “COMPOSITIONS AND METHODS FOR TREATING CANCER WITH CHIMERIC TIM RECEPTORS IN COMBINATION WITH INHIBITORS OF POLY (ADP-RIBOSE) POLYMERASE” (CERO THERAPEUTICS HOLDINGS, INC., priority 2020, published 2025).

For test [1], the system named is Kuramochi ovarian cancer cells. The test can be described thus: Kuramochi cell number under PARP inhibitors, tracked via imaging. The test is classed as cell-based, human. The settings on record: for elimination of the Kuramochi culture: by t=50 h; for EC50 values (ranking), number of Kuramochi cells: five PARP inhibitors compared. Here is the method:
Kuramochi ovarian cancer cells expressing an mCherry-NLS plasmid were incubated with 0.78 to 100 uM of the PARP inhibitor Niraparib. The number of Kuramochi cells/well was tracked via imaging.

The test system of the next test is A2780-mCh-NLS cells. The settings on record: FIG. 11A. How it is done: (§1) Flow cytometry measurement of surface PS: A2780-mCh-NLS cells were treated with […] Niraparib or with equivalent volume of DMSO (control). 48 hours later samples were trypsinized and stained using a Tim4-Fc followed by a fluorescently-labeled secondary antibody to the Tim4-Fc. Samples were immediately analyzed via Flow cytometry.

For another test, the system named is Kuramochi cells. How it is done:
FIG. 8A: Flow cytometry measurement of surface PtdSer. Kuramochi cells were treated with 1.56 or 25 μM Niraparib or with equivalent volume of DMSO (control). 48 hours later samples were trypsinized and stained using a Tim4-Fc followed by a fluorescently-labeled secondary anti body to the Tim4-Fc. FIG. 8B: Kuramochi cells pre-treated for ˜20 hours with 1.56 μM Niraparib were co-cultured with pCTX133 and Untransduced CD4 T cells from donor 32 at a 2:1 T cell:Kuramochi ratio and a final Niraparib concentration of 1.56 μM. […] All data were collected via IncuCyte.
as §1

With `NC(=O)c1cccc2cn(-c3ccc([C@@H]4CCCNC4)cc3)nc12` [Niraparib], the “number of Kuramochi cells in culture” value in test [1] (Niraparib 0.78 to 100 uM, t=50, FIG. 1A) is listed as “decreases monotonically with increasing Niraparib concentration”. Moreover, in test [1] (FIG. 1B), the “elimination of the Kuramochi culture” value was “almost eliminate the Kuramochi culture”. The “EC50 values (ranking), number of Kuramochi cells” value in test [1] (t=50 h, FIG. 1B) is reported as “most sensitive EC50 values”. In addition, the “Tim4-Fc MFI” value is reported as “increase” with A2780-mCh-NLS cells (1.56 and 25 μM Niraparib vs DMSO); “increase” in the test on Kuramochi cells (Kuramochi, 25 μM Niraparib vs DMSO, FIG. 11B). Also, the “concentration at which anti-tumor effect begins” value with A2780-mCh-NLS cells is reported as “at least 1.56 μM”; with Kuramochi cells (Kuramochi, FIG. 11B) it was “at least 25 μM”. In the test with Kuramochi cells (BRCA-2 mutated Kuramochi, brief exposure, 1.56 or 25 μM, FIG. 8A), the “membrane phospholipid symmetry (Ptd-Ser exposure)” value is on record as “elicits changes in membrane phospholipid symmetry, in a dose dependent manner”. In addition, the “growth of Kuramochi cells” value in the test with Kuramochi cells (FIG. 8A) is “effective in inhibiting growth”.
Take `CNCc1ccc(-c2[nH]c3cc(F)cc4c3c2CCNC4=O)cc1` [Rucaparib]: the “elimination of the Kuramochi culture” value in test [1] (FIG. 1B) was “almost eliminate the Kuramochi culture”.
For the compound `Cn1ncnc1[C@H]1c2n[nH]c(=O)c3cc(F)cc(c23)N[C@@H]1c1ccc(F)cc1` [Talazoparib], in test [1] (t=50 h, FIG. 1B), the “EC50 values (ranking), number of Kuramochi cells” value is reported as “most sensitive EC50 values”.
Regarding `C[C@]1(c2nc3c(C(N)=O)cccc3[nH]2)CCCN1` [Veliparib], the “impact on the number of detected Kuramochi cells” value in test [1] (t=50 h, of the five PARP inhibitors tested, FIG. 1B) is “least impact”.
